One data set concerns the target human mGluR5 (Homo sapiens, UniProt P41594). Briefly: Cell-based functional Ca2+ mobilization assay (FDSS), potentiation of glutamate EC20 response. From the text: Human mGluR5a cDNA in pCMV6-XL6 mammalian expression plasmid was purchased from OriGene Technologies, Inc. (catalogue number SC326357) and subcloned into pcDNA3.1(-). Human embryonic kidney (HEK)293A cells were then transfected with human mGluR5a pcDNA3.1(-) using LipofectAmine-2000 (Invitrogen) and monoclones were selected and tested for functional response using a Ca^2+ mobilization assay. Monoclones were named for the species (“H” for human) plus the location on the plate (e.g. “10H”). […] Cell-lines used were either the H10H or […] cell-lines expressing the human mGluR5 receptor. The following day, the growth medium was removed and the cells were washed with assay buffer containing 1× Hank's balanced salt solution (Invitrogen, Carlsbad, Calif.), 20 mM HEPES, 2.5 mM probenecid, pH 7.4 and left with 20 μL of this reagent. Following this step, the cells were loaded with calcium indicator dye, fluo-4 AM, to a final concentration of 2 μM and incubated for 40-45 min at 37° C. The dye solution was removed and replaced with assay buffer. Cell plates were held for 10-15 min at room temperature and were then loaded into the Functional Drug Screening System 6000 (FDSS 6000, Hamamatsu, Japan). […] Calcium fluorescence measures were recorded as fold over basal fluorescence; raw data was then normalized to the maximal response to glutamate. […] The concentration-response curves of compounds of the present invention, obtained in the presence of EC20 of mGluR5 receptor agonist glutamate to determine positive allosteric modulation, were generated using Microsoft Excel with IDBS XLfit add-ins. The raw data file containing all time points was used as the data source in the analysis template. This was saved by the FDSS as a tab-delimited text file. Data were normalized using a static ratio function (F/F0) for each measurement of the total 350 values per well divided by each well's initial value. […] This is sufficient time to capture the peak amplitude of the cellular Calcium response. […] Each of the three values collected at each concentration of test compound were weighted evenly. Individual values falling outside the 95% prediction limits of the curve fit were automatically excluded from the fit. […] These two methods are in good agreement for curves with a clear plateau at the high concentration range. […] For consistency purposes across the range of potencies observed, all EMax values reported in this application are calculated using the maximum average response at a single concentration. The % EMax value for each compound reported in this application is defined as the maximum % effect obtained in a concentration-response curve of that compound expressed as a percent of the response of a maximally effect concentration of glutamate. […] Table IV below lists specific compounds as well as experimentally determined mGluR5 activity determined in a cell-based. The mGluR5 activity was determined using the metabotropic glutamate receptor activity assays in human embryonic kidney cells as described herein, wherein the human embryonic kidney cells were transfected with human mGluR5. The data in Table III were obtained using the H10H cell-line which expresses recombinant human mGluR5. The compound number corresponds to the compound numbers used in Table I.

Data set [1] relates to amphetamine-induced hyperlocomotion. Briefly: Reversal of amphetamine-induced hyperlocomotion in rat. Type of data set: in vivo. The note with it: male Sprague-Dawley rats; compound p.o.; amphetamine 1 mg/kg s.c. As for the experimental part: The study was carried out using male Sprague-Dawley rats weighing 225 g-275 g, between 2-3 months old (Harlan, Inc., Indianapolis, Ind.). They were kept in the animal care facility certified by the American Association for the Accreditation of Laboratory Animal Care (AALAC) under a 12-hour light/dark cycle (lights on: 6 a.m.; lights off: 6 p.m.) and had free access to food and water. The experimental protocols performed during the light cycle were approved by the Institutional Animals Care and Use Committee of Vanderbilt University and conformed to the guidelines established by the National Research Council Guide for the Care and Use of Laboratory Animals.
Locomotor activity was assessed as mean distance traveled (cm) in Smart Open Field locomotor activity test chambers (Hamilton-Kinder, San Diego, Calif.) with 16×16 photobeams with chambers measuring 43.2 cm (Length)×43.2 cm (Width)×30.5 cm (Height) (Med Associates, St. Albans, Vt.). […] At 60 min, all rats were injected subcutaneously with 1 mg/kg amphetamine or vehicle and then monitored for an additional 60 min. Animals are monitored for a total of 120 minutes.
Data are expressed as the mean (±SEM) distance traveled recorded in 5 min intervals over the test period. The data was analyzed using repeated measures analysis of variance (ANOVA) followed by post-hoc testing using Dunnett's test, when appropriate. […]

Setting [2] is: H10H cell-line, maximum % effect as percent of response to maximally effective glutamate, glutamate EC20 present, read-out: Emax (%).
Setting [3] is: H10H cell-line, potentiation in presence of glutamate EC20.

Where two headings read alike, the source gives them in different places.

Experimental findings from US20130345204A1, “SUBSTITUTED BICYCLIC CYCLOALKYL PYRAZOLE LACTAM ANALOGS AS ALLOSTERIC MODULATORS OF MGLUR5 RECEPTORS” (Vanderbilt University, priority 2012, published 2013) are described below.

Sequence of human mGluR5 (P41594 21-1180 isoform P41594-2 limits assumed): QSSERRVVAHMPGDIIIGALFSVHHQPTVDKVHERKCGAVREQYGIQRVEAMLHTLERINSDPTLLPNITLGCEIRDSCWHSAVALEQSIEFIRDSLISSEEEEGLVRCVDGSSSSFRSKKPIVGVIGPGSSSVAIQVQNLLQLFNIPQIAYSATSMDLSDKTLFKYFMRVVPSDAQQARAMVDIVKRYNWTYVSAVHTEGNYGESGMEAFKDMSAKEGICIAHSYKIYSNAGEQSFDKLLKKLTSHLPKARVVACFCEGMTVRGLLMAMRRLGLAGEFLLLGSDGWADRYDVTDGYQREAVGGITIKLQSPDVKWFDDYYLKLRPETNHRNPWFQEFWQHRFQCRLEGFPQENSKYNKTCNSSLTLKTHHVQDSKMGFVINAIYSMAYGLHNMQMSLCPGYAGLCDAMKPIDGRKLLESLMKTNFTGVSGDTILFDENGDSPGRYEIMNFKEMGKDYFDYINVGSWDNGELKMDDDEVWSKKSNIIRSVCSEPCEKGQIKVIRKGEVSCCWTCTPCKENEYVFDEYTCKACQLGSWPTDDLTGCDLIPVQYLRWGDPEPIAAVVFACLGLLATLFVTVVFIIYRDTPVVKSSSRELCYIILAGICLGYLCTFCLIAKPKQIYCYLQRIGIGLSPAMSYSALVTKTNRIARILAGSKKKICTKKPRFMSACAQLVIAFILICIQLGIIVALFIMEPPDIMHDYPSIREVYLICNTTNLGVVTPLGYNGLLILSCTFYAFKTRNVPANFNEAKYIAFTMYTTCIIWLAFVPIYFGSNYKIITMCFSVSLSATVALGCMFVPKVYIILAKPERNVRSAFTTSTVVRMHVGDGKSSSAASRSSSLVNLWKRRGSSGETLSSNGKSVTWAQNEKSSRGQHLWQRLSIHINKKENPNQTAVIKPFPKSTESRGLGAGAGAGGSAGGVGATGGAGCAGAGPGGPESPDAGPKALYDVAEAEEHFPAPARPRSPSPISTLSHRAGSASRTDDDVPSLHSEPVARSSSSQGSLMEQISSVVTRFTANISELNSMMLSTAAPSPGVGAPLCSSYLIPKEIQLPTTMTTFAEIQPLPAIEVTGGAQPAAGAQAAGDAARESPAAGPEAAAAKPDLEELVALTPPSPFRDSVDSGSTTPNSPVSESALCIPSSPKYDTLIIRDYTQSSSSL

For `O=C1c2cc(COc3ccccc3)nn2CCN1C1CCOC1` (racemic) [Compound 12], the Emax on human mGluR5 (setting [2]) was found to be 25%. Further, on human mGluR5 (setting [3]), the EC50 is at least 10000 nM.
Taken in the same sequence, the figures for `O=C1c2cc(COc3ccccc3)nn2CCN1C1CCCOC1` (racemic) [Compound 20] were 52% and at least 10000 nM.
Molecule `O=C1c2cc(COc3ccccc3)nn2CCCN1CC1CC1(F)F` (racemic) [Compound 25] gave a melting point of 102.2 °C. On human mGluR5 (setting [2]), the Emax was 58%. Further, the EC50 on human mGluR5 (setting [3]) is 389 nM.
Consider `O=C1c2cc(COc3ccccc3)nn2CCN1CC1CC1(F)F` (stereo in doubt) [Compound 2, (S)-5-((2,2-difluorocyclopropyl)methyl)-2-(phenoxymethyl)-6,7-dihydropyrazolo[1,5-a]pyrazin-4(5H)-one], for which the “reversal of amphetamine-induced hyperlocomotion” value in data set [1] is “effective in reducing amphetamine-induced hyperlocomotion”.
Take `O=C1c2cc(COc3ccccc3)nn2CCN1C[C@@H]1CC1(F)F` [Compound 2, (S)-5-((2,2-difluorocyclopropyl)methyl)-2-(phenoxymethyl)-6,7-dihydropyrazolo[1,5-a]pyrazin-4(5H)-one]: on human mGluR5 (setting [2]), the Emax was found to be 65%. Further, on human mGluR5 (setting [3]), the EC50 is 380 nM.
In the case of `C[C@@H]1Cn2nc(COc3ccccc3)cc2C(=O)N1CC1CC1(F)F` (stereo partly shown) [Compound 4], the Emax on human mGluR5 (setting [2]) is 72%. Further, the EC50 on human mGluR5 (setting [3]) is 871 nM.
Take `C[C@@H]1Cn2nc(COc3ccccc3)cc2C(=O)N1CC1CCC1` [Compound 6]: the Emax on human mGluR5 (setting [2]) came to 76%. Moreover, the EC50 on human mGluR5 (setting [3]) is 91.2 nM.
Take `O=C1c2cc(COc3ccccc3)nn2CCN1C1CCCC1` [Compound 7]: at human mGluR5 (setting [2]), the maximal effect (Emax) worked out at 48%. Besides, at human mGluR5 (setting [3]), the EC50 was 195 nM.
Take `O=C1c2cc(COc3ccccc3)nn2CCN1C1COC1` [Compound 8]: the Emax at human mGluR5 (setting [2]) turned out to be 30%. At human mGluR5 (setting [3]), the EC50 was above 10000 nM.
For `O=C1c2cc(COc3ccccc3)nn2CCN1C1CCC1` [Compound 9] the same measures were 29% and 324 nM.
As for `O=C1c2cc(COc3ccccc3)nn2CCN1CC1CC(F)(F)C1` [Compound 10], the Emax on human mGluR5 (setting [2]) is 72%. Also, the EC50 at human mGluR5 (setting [3]) is 646 nM.
`O=C1c2cc(COc3ccccc3)nn2CCN1C1CCOCC1` [Compound 11]: the Emax on human mGluR5 (setting [2]) came out at 46%. Besides, the EC50 at human mGluR5 (setting [3]) is at least 10000 nM.
Taken in the same sequence, the figures for `O=C1c2cc(COc3ccccc3)nn2CCN1C1CCCCC1` [Compound 13, 5-cyclohexyl-2-(phenoxymethyl)-6,7-dihydropyrazolo[1,5-a]pyrazin-4(5H)-one] were 58% and 145 nM.
Taken in the same sequence, the figures for `O=C1c2cc(COc3cccc(F)c3)nn2CCN1C[C@H]1CC1(F)F` [Compound 14, (R)-5-((2,2-difluorocyclopropyl)methyl)-2-((3-fluorophenoxy)methyl)-6,7-dihydropyrazolo[1,5-a]pyrazin-4(5H)-one] were 51% and 158 nM.
In the case of `CC1(C)CCC(N2CCn3nc(COc4ccccc4)cc3C2=O)CC1` [Compound 16], the Emax on human mGluR5 (setting [2]) is 71%. In addition, at human mGluR5 (setting [3]), the EC50 is 97.7 nM.
Taken in the same sequence, the figures for `O=C1c2cc(COc3ccccc3)nn2CCN1C1Cc2ccccc2C1` [Compound 17] were 77% and 58.9 nM.
With `O=C1c2cc(COc3ccccc3)nn2CCN1CC1CCCCC1` [Compound 18], the Emax at human mGluR5 (setting [2]) is 79%. Besides, the EC50 on human mGluR5 (setting [3]) was 52.5 nM.
Taken in the same sequence, the figures for `O=C1c2cc(COc3cccc(F)c3)nn2CCN1C[C@@H]1CC1(F)F` [Compound 21] were 65% and 110 nM.
In the case of `O=C1c2cc(COc3ccccc3)nn2CCCN1CC1CC1` [Compound 22, 5-(cyclopropylmethyl)-2-(phenoxymethyl)-5,6,7,8-tetrahydro-4H-pyrazolo[1,5-a][1,4]diazepin-4-one], the melting point came out at 126.4 °C. In addition, the Emax on human mGluR5 (setting [2]) was found to be 59%. The concentration for a half-maximal effect (EC50) on human mGluR5 (setting [3]) is 380 nM.
Taken in the same sequence, the figures for `CC1CCn2nc(COc3ccccc3)cc2C(=O)N1CC1CC1` (stereo not shown) [Compound 23] were 68.6 °C, 57% and 398 nM.
Taken in the same sequence, the figures for `CC1(C)CN(CC2CC2)C(=O)c2cc(COc3ccccc3)nn2C1` [Compound 24] were 96.5 °C, 38% and at least 10000 nM.
`CC1CN(CC2CC2)C(=O)c2cc(COc3ccccc3)nn2C1` (stereo not shown) [Compound 28] returned a melting point of 67.4 °C. On human mGluR5 (setting [2]), the Emax turned out to be 30%. Also, the EC50 on human mGluR5 (setting [3]) is above 30200 nM.
Turning to `CC1(CN2CCn3nc(COc4ccccc4)cc3C2=O)COC1` [Compound 31], the Emax on human mGluR5 (setting [2]) worked out at 71%. Further, at human mGluR5 (setting [3]), the EC50 was 1100 nM.
For `O=C1c2cc(COc3ccccc3)nn2CCN1CC1CC(F)(F)C1` [Compound 32], the “Emax (%)” value at human mGluR5 (H10H cell-line, maximum % effect as percent of response to maximally effective glutamate, glutamate EC20 present) was determined as 73%. Besides, the pEC50 on human mGluR5 (setting [3]) was determined as 6.19.
For `O=C1c2cc(COc3ccccc3)nn2CCN1[C@H]1CCCNC1` [Compound 33], the Emax at human mGluR5 amounted to 19%. Besides, on human mGluR5 (setting [3]), the EC50 is above 30200 nM.
In the case of `O=C1c2cc(COc3ccccc3)nn2CCN1[C@H]1CCNC1` [Compound 34], the Emax on human mGluR5 (setting [2]) worked out at 24%. The EC50 at human mGluR5 (setting [3]) was above 30200 nM.
As for `O=C1c2cc(COc3ccccc3)nn2CCN1C1CCNCC1` [Compound 37], the maximum response (Emax) at human mGluR5 (setting [2]) was 22%. Further, at human mGluR5 (setting [3]), the concentration giving a half-maximal response (EC50) was above 30200 nM.
